From patent publication US20220089575A1, “FARNESOID X RECEPTOR AGONISTS AND USES THEREOF” (Metacrine, Inc., priority 2017, published 2022)

Target: T1, hFXR (Homo sapiens, UniProt Q96RI1)
T1 construct: expressed in transfected cells; host or cells: CV-1 cells
T1 sequence (Q96RI1 1-486): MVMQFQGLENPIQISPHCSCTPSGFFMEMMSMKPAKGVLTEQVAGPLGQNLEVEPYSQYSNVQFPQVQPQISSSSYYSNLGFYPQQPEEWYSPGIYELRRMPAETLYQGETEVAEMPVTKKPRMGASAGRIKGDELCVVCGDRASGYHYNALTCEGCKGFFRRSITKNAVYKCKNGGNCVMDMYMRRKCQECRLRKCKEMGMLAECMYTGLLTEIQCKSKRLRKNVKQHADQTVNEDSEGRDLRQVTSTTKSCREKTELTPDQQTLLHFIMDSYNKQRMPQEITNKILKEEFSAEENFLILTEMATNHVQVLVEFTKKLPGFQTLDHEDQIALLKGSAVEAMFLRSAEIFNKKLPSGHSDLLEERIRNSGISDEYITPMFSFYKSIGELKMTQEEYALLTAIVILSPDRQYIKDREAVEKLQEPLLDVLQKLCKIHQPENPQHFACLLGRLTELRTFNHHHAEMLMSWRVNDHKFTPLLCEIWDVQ
T1 sequence (P19793 1-462 partner): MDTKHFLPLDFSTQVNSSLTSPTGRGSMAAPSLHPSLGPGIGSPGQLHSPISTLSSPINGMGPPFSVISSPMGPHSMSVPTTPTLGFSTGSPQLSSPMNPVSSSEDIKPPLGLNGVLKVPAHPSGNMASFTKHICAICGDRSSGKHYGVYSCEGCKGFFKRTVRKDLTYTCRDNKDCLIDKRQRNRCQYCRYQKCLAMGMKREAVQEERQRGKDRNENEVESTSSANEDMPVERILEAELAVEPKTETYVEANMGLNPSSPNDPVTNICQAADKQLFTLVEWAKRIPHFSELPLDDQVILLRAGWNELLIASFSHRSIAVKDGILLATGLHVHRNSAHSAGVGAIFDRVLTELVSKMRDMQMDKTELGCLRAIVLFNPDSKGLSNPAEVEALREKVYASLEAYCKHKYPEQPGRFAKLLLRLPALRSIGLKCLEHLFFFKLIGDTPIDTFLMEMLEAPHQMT
Test: In Vitro FXR Assay (TK): TK-ECRE-luc reporter in transfected CV-1 cells
Assay type: cell-based
Details: 18 hrs, luminescence, maximum efficacy of <25% of the Fexarmine control classified as '+'
How it was run: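 CV-1, transient co-transfection: hFXR + hRXR + TK-ECRE-luc + pCMX-YFP; charcoal-stripped serum. 18 h post-transfection, DMSO serial dilutions of cpd added; 18 h incubation; lysis, luminescence.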

EC50, ≤ 250 nM:
COc1ccc([C@H]2CC[C@H](CN(c3cc(-c4cnn(C(C)C)c4)ccn3)C(=O)[C@H]3CC[C@H](OC(=O)N4CCN(C)CC4)CC3)CC2)nc1C [Compound 6.41, trans-4-((4-(1-Isopropyl-1H-pyrazol-4-yl)pyridin-2-yl)((trans-4-(5-methoxy-6-methylpyridin-2-yl)cyclohexyl)methyl)carbamoyl)cyclohexyl 4-methylpiperazine-1-carboxylate]
COc1ccc([C@H]2CC[C@H](CN(c3cccc(-c4cnn(C(C)C)c4)c3)C(=O)[C@H]3CC[C@H](OC(=O)N4CC(S(C)(=O)=O)C4)CC3)CC2)nc1C [Compound 6.42, trans-4-((3-(1-Isopropyl-1H-pyrazol-4-yl)phenyl)((trans-4-(5-methoxy-6-methylpyridin-2-yl)cyclohexyl)methyl)carbamoyl)cyclohexyl 3-(methylsulfonyl)azetidine-1-carboxylate]
COc1ccc([C@H]2CC[C@H](CN(c3cccc(-c4cnn(C(C)C)c4)c3)C(=O)[C@H]3CC[C@H](OC(=O)N4CCOCC4)CC3)CC2)nc1C [Compound 6.43, trans-4-((3-(1-Isopropyl-1H-pyrazol-4-yl)phenyl)((trans-4-(5-methoxy-6-methylpyridin-2-yl)cyclohexyl)methyl)carbamoyl)cyclohexylmorpholine-4-carboxylate]
COc1ccc([C@H]2CC[C@H](CN(c3cccc(-c4cnn(C(C)C)c4)c3)C(=O)[C@H]3CC[C@H](OC(=O)N4CCN(C)CC4)CC3)CC2)nc1C [Compound 6.44, trans-4-((3-(1-Isopropyl-1H-pyrazol-4-yl)phenyl)((trans-4-(5-methoxy-6-methylpyridin-2-yl)cyclohexyl)methyl)carbamoyl)cyclohexyl 4-methylpiperazine-1-carboxylate]
COc1ccc(C23CCC(CN(c4cccc(-c5coc(C6CC6)n5)c4)C(=O)[C@H]4CC[C@H](OC(=O)NCCO)CC4)(CC2)CC3)cc1C [Compound 6.45, 4-((3-(2-Cyclopropyloxazol-4-yl)phenyl) ((4-(4-methoxy-3-methylphenyl)bicyclo [2.2.2]octan-1-yl)methyl)carbamoyl) cyclohexyl trans-(2-hydroxyethyl) carbamate]
COc1ccc([C@H]2CC[C@H](CN(c3cccc(-c4coc(C5CC5)n4)c3)C(=O)[C@H]3CC[C@H](OC(=O)NCCO)CC3)CC2)cc1C [Compound 6.46, trans-4-((3-(2-Cyclopropyloxazol-4-yl)phenyl)((trans-4-(4-methoxy-3-methylphenyl)cyclohexyl)methyl)carbamoyl)cyclohexyl (2-hydroxyethyl) carbamate]
COc1ccc([C@H]2CC[C@H](CN(c3cccc(-c4coc(C(C)C)n4)c3)C(=O)[C@H]3CC[C@H](OC(=O)NCCO)CC3)CC2)cc1C [Compound 6.47, trans-4-((3-(2-Isopropyloxazol-4-yl)phenyl)((trans-4-(4-methoxy-3-methylphenyl)cyclohexyl)methyl)carbamoyl)cyclohexyl (2-hydroxyethyl) carbamate]
COc1ccc([C@H]2CC[C@H](CN(c3cccc(-c4coc(C(C)C)n4)c3)C(=O)[C@H]3CC[C@H](OC(=O)NCCO)CC3)CC2)nc1C [Compound 6.48, trans-4-((3-(2-Isopropyloxazol-4-yl)phenyl)((trans-4-(5-methoxy-6-methylpyridin-2-yl)cyclohexyl)methyl)carbamoyl)cyclohexyl (2-hydroxyethyl)carbamate]
COc1ccc([C@H]2CC[C@H](CN(c3cccc(-c4coc(C(C)C)n4)c3)C(=O)[C@H]3CC[C@H](OC(=O)NCCCO)CC3)CC2)nc1C [Compound 6.49, trans-4-((3-(2-Isopropyloxazol-4-yl)phenyl)((trans-4-(5-methoxy-6-methylpyridin-2-yl)cyclohexyl)methyl)carbamoyl)cyclohexyl (3-hydroxypropyl)carbamate]
COc1ccc([C@H]2CC[C@H](CN(c3cccc(-c4coc(C5CC5)n4)c3)C(=O)[C@H]3CC[C@H](OC(=O)NCCO)CC3)CC2)nc1C [Compound 6.50, trans-4-((3-(2-Cyclopropyloxazol-4-yl)phenyl)((trans-4-(5-methoxy-6-methylpyridin-2-yl)cyclohexyl)methyl)carbamoyl)cyclohexyl (2-hydroxyethyl)carbamate]
COc1ccc([C@H]2CC[C@H](CN(c3cccc(-c4coc(C5CC5)n4)c3)C(=O)[C@H]3CC[C@H](OC(=O)NCCCO)CC3)CC2)nc1C [Compound 6.51, trans-4-((3-(2-Cyclopropyloxazol-4-yl)phenyl)((trans-4-(5-methoxy-6-methylpyridin-2-yl)cyclohexyl)methyl)carbamoyl)cyclohexyl (3-hydroxypropyl)carbamate]
COc1ccc([C@H]2CC[C@H](CN(c3cc(-c4coc(C5CC5)n4)ccn3)C(=O)[C@H]3CC[C@H](OC(=O)NCCO)CC3)CC2)cc1C [Compound 6.52, trans-4-((4-(2-Cyclopropyloxazol-4-yl)pyridine-2-yl)((trans-4-(4-methoxy-3-methylphenyl)cyclohexyl)methyl)carbamoyl)cyclohexyl (2-hydroxyethyl) carbamate]
COc1ccc([C@H]2CC[C@H](CN(c3cccc(-c4coc(C5CC5)n4)c3)C(=O)[C@H]3CC[C@H](OC(=O)NCCO)CC3)CC2)cc1C#N [Compound 6.53, trans-4-(((trans-4-(3-Cyano-4-methoxyphenyl)cyclohexyl)methyl)(3-(2-cyclopropyloxazol-4-yl)phenyl)carbamoyl)cyclohexyl (2-hydroxyethyl)carbamate]
COc1ccc([C@H]2CC[C@H](CN(c3cc(-c4coc(C5CC5)n4)ccn3)C(=O)[C@H]3CC[C@H](OC(=O)NCCO)CC3)CC2)cc1C#N [Compound 6.54, trans-4-(((trans-4-(3-Cyano-4-methoxyphenyl)cyclohexyl)methyl)(4-(2-cyclopropyloxazol-4-yl)pyridine-2-yl)carbamoyl)cyclohexyl (2-hydroxyethyl)carbamate]
COc1ccc([C@H]2CC[C@H](CN(c3cccc(-c4coc(C5CC5)n4)c3)C(=O)[C@H]3CC[C@H](OC(=O)NCCO)CC3)CC2)nc1C#N [Compound 6.55, trans-4-(((trans-4-(6-Cyano-5-methoxypyridin-2-yl)cyclohexyl)methyl)(3-(2-cyclopropyloxazol-4-yl)phenyl)carbamoyl)cyclohexyl (2-hydroxyethyl)carbamate]
COCCNC(=O)O[C@H]1CC[C@H](C(=O)N(C[C@H]2CC[C@H](c3ccc(OC)c(C)n3)CC2)c2cc(-c3coc(C4CC4)n3)ccn2)CC1 [Compound 6.56, trans-4-((4-(2-Cyclopropyloxazol-4-yl)pyridine-2-yl)((trans-4-(5-methoxy-6-methylpyridin-2-yl)cyclohexyl)methyl)carbamoyl)cyclohexyl (2-methoxyethyl) carbamate]
COc1ccc([C@H]2CC[C@H](CN(c3cc(-c4coc(C5CC5)n4)ccn3)C(=O)[C@H]3CC[C@H](OC(=O)NC4CC4)CC3)CC2)nc1C [Compound 6.57, trans-4-((4-(2-Cyclopropyloxazol-4-yl)pyridine-2-yl)((trans-4-(5-methoxy-6-methylpyridin-2-yl)cyclohexyl)methyl)carbamoyl)cyclohexyl cyclopropylcarbamate]
COc1ccc([C@H]2CC[C@H](CN(c3cc(-c4coc(C5CC5)n4)ccn3)C(=O)[C@H]3CC[C@H](OC(=O)NC(C)C)CC3)CC2)nc1C [Compound 6.58, trans-4-((4-(2-Cyclopropyloxazol-4-yl)pyridine-2-yl)((trans-4-(5-methoxy-6-methylpyridin-2-yl)cyclohexyl)methyl)carbamoyl)cyclohexyl isopropylcarbamate]
COc1ccc([C@H]2CC[C@H](CN(c3cc(-c4coc(C5CC5)n4)ccn3)C(=O)[C@H]3CC[C@H](OC(=O)N4CCOCC4)CC3)CC2)nc1C [Compound 6.59, trans-4-((4-(2-Cyclopropyloxazol-4-yl)pyridine-2-yl)((trans-4-(5-methoxy-6-methylpyridin-2-yl)cyclohexyl)methyl)carbamoyl)cyclohexyl morpholine-4-carboxylate]
